How the values were obtained:
Format in all cases: in vivo, human
MMP-2 = experiment: Serum MMP-2 by gelatin zymography, 2-year randomized clinical trial of SDD versus placebo; settings: per-protocol analysis, p=0.03, SDD minus placebo
Text: (§1) Elevated circulating MMP 9 has been associated with increased risk for fatal cardiac events and PM are considered a population vulnerable, due to decreased estrogen levels, to cardiovascular disease.
(§2) Details concerning subject inclusion and exclusion criteria have been published previously (Payne et al., J. Clin. Periodontol. 34:776-787, 2007). Briefly, subjects were 45-70 years of age at telephone screening, postmenopausal, osteopenic at the lumbar spine or femoral neck, and not receiving hormone replacement therapy (HRT). […] The subjects also had to be in good general health without co-morbidities that could have interfered with adherence to the study protocol, planned follow-up or endpoint measurement.
(§3) 113 PM women who completed the randomized clinical trial (RCT) consented at the final (two-year) study visit for the analysis of stored serum samples. 51 subjects received SDD (20 mg doxycycline) and 62 received placebo tablets b.i.d. for 2 years. Serum samples were collected at the baseline, 1-year and 2-year appointments and frozen at −80° C. until analyzed. MMPs were measured by gelatin zymography using denatured type I collagen as a substrate and purified MMP-2 (72 kDa) and MMP-9 (92 kDa) as standards. Gelatinolytic bands were scanned densitometrically. Statistical analyses were performed using Generalized Estimating Equations. Primary analyses were intent-to-treat (ITT). […]

[1] = Serum lipids (commercial laboratory), 2-year RCT of SDD versus placebo; settings: subgroup: women more than 5 years postmenopausal
Text: (§4) The objective of this study was to determine whether sub-antimicrobial-dose-doxycycline (SDD) can reduce serum inflammatory biomarkers associated with cardiovascular disease (CVD) risk (primary outcome: CRP) in a two-year, randomized controlled clinical trial (RCT) in postmenopausal (PM) women with systemic osteopenia and periodontitis. 113 women who completed the RCT (SDD group: n=51; placebo group: n=62) consented at the final (two-year) study visit for their baseline, one-year and two-year serum samples to be analyzed for serum inflammatory biomarkers. Analyses by ELISA included CRP (high-sensitivity ELISA), IL-6, myeloperoxidase (MPO), IL-1β and TNF-α. Serum lipids (total cholesterol, HDL cholesterol, LDL cholesterol, VLDL cholesterol, and triglycerides) were analyzed by a commercial laboratory. Statistical analyses were performed using Generalized Estimating Equations; primary analyses were intent-to-treat (ITT). Pre-specified subgroup analyses also were performed. All results are presented as ratios of median values (SDD versus placebo) unless otherwise indicated.

MMP-8/TIMP-1 = experiment: Median MMP-8/TIMP-1 ratio, further analysis of the 2-year RCT; settings: women within five years of menopause, at two years
MMP-9 = experiment: Serum MMP-9 by gelatin zymography, 2-year randomized clinical trial of SDD versus placebo; settings: postmenopausal osteopenic women with periodontitis, 20 mg doxycycline b.i.d. for 2 years, 92 kDa gelatinase
Text: as §1, §2, §3

CRP = experiment: Serum CRP by high-sensitivity ELISA, 2-year RCT of SDD versus placebo; settings: intent-to-treat
Text: The objective of this study was to determine whether sub-antimicrobial-dose-doxycycline (SDD) can reduce serum inflammatory biomarkers associated with cardiovascular disease (CVD) risk (primary outcome: CRP) in a two-year, randomized controlled clinical trial (RCT) in postmenopausal (PM) women with systemic osteopenia and periodontitis.
as §4, with “113” for “The objective of this study was to determine whether sub-antimicrobial-dose-doxycycline (SDD) can reduce serum inflammatory biomarkers associated with cardiovascular disease (CVD) risk (primary outcome: CRP) in a two-year, randomized controlled clinical trial (RCT) in postmenopausal (PM) women with systemic osteopenia and periodontitis. 113”

For `C[C@H]1c2cccc(O)c2C(=O)C2=C(O)[C@]3(O)C(=O)C(C(N)=O)=C(O)[C@@H](N(C)C)[C@@H]3[C@@H](O)[C@@H]21` [SDD, 6α-deoxy-5-hydroxytetracycline], the “reduction of serum MMP-2, 2-year values (average)” value (MMP-2) was 16.5 units, the “VLDL cholesterol, ratio of median values (SDD versus placebo)” value ([1]; 95% CI 0.76 to 1.00, p=0.06) was 0.87 and the “triglycerides, ratio of median values (SDD versus placebo)” value ([1]; 95% CI 0.76 to 1.01, p=0.06) was 0.87. For the same molecule, the “increase in HDL cholesterol over time (difference in means)” value ([1]; 95% CI 1.17 to 10.81, p=0.01) was 5.99 mg/dL, the “reduction of median MMP-8/TIMP-1 ratio” value (MMP-8/TIMP-1) was 49% and the “MMP-8/TIMP-1, ratio of medians (SDD relative to placebo)” value (MMP-8/TIMP-1; 95% CI 0.31 to 0.82, p=0.006) was 0.51. For the same molecule, the “reduction of serum MMP-9 levels (difference in means, SDD minus placebo)” value (MMP-9; intent-to-treat analysis) was 28.4 scanning units, the “reduction of serum MMP-9 levels (difference in means, SDD minus placebo)” value (MMP-9; per-protocol analysis) was 29.4 scanning units and the “reduction of median CRP levels compared to placebo” value (CRP; 2-year RCT, serum) was 18%. For the same molecule, the “CRP, ratio of median values (SDD versus placebo)” value (CRP; 95% CI 0.70 to 0.97, p=0.02) was 0.82.

From patent US20120046249A1, “METHODS OF REDUCING THE RISK OF CARDIOVASCULAR DISEASE IN POSTMENOPAUSAL WOMEN” (priority 2008, published 2012)
